Where a name gives a salt, the structure may show the parent alone.
Target: T1, human GPR40 (Homo sapiens, UniProt O14842)
T1 construct: expressed in transfected cells
Assay: Ca2+ mobilization (FLIPR) in a stable GPR40-expressing cell; GPR40 agonist activity
Format: cell-based
Details: compound concentration corresponding to 50% PosiC, 100% = intracellular calcium level induced by 80 μM palmitic acid
Procedure: Evaluation of effect of test compounds on Ca^2+ mobilization by using a stable GPR40-expressing cell A stable human GPR40-expressing HEK293 cell was used. A cell suspension was prepared such that the above-mentioned cells were present at 6×10^5 cells/mL in a cell culture medium (D-MEM (Nikken Bio Medical Laboratory) supplemented with 10% (v/v) fetal bovine serum (Biowest) and 1% (v/v) penicillin-streptomycin solution (Invitrogen)). The cell suspension was plated in a 384-well plate (poly-D-lysine coated plate; Falcon) in a volume of 25 μl/well, and the plate was incubated at 37° C. in an atmosphere of 5% CO2 overnight. Each test compound was added to the cell at each concentration as below, and then the change in intracellular calcium level was measured by FLIPR^TETRA (Molecular Devices). Before the FLIPR assay, the following preparative solutions were prepared. First, an assay buffer was prepared for use in the preparation of a fluorescent dye solution and a diluent buffer solution. The assay buffer was prepared by adding 1M HEPES solution (Invitrogen) to Hanks' Balanced Salt Solution (Invitrogen), followed by adjusting the pH to 7.4 with 1M NaOH (Nacalai Tesque). Next, the fluorescent dye solution and the diluent buffer solution were prepared. The fluorescent dye solution was prepared in accordance with the instruction manual attached to Fluo-4NW calcium assay kit (Invitrogen), followed by addition of bovine serum albumin (Sigma) to a final concentration of 0.1% (w/v). The diluent buffer solution was prepared by adding bovine serum albumin (Sigma) to the assay buffer to give a final concentration of 0.1% (w/v). After removing a medium supernatant from the cell culture plate incubated overnight, the fluorescent dye solution was added to the plate in a volume of 25 μl/well. The plate was incubated at 37° C. in an atmosphere of 5% CO2 for 90 minutes to promote the fluorescent dye uptake in the cell. Meanwhile, the test compounds (i.e., the compounds prepared in Examples) dissolved in dimethyl sulfoxide (DMSO; Nacalai Tesque) were diluted with the diluent buffer solution, to prepare each compound solution at each concentration. In addition, a palmitic acid solution was prepared as a positive control solution (hereinafter abbreviated as PosiC). A 40 μl aliquot of each sample solution prepared as above was added to each well of a 384-well polypropylene plate to prepare a compound plate. Finally, after the sufficient uptake of the fluorescent dye in the cell, the cell plate and the compound plate were set to FLIPR^TETRA. After the above pretreatment, the change in intracellular calcium level was measured by FLIPR^TETRA upon addition of 25 μl of each test compound solution at each concentration. The GPR40 agonist activity of each test compound at each concentration was determined as a relative activity level (% PosiC) with the intracellular calcium level induced by 80 μM palmitic acid (a GPR40 agonist) set to 100%. Next, each compound concentration corresponding to 50% PosiC was calculated based on the % PosiC value, to compare between agonist activities of the test compounds. In the tables, “++++” indicates 0.01 μM or more but less than 0.1 μM, “+++” indicates 0.1 μM or more but less than 1 μM, “++” indicates 1 μM or more but less than 10 μM, and “+” indicates 10 μM or more for 50% posiC value. In the tables, “N.T.” indicates “not tested”.

T1 sequence (O14842 whole entry): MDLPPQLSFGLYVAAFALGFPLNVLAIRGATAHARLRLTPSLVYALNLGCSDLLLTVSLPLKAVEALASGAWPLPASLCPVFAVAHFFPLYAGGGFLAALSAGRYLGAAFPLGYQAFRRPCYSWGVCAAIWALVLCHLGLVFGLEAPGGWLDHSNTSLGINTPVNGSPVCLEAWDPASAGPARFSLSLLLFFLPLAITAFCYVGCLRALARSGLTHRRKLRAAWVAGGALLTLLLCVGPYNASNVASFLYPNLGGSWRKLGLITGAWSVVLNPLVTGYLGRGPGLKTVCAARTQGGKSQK

**Q.** For CC1(C)CCC=CC12CCCC(COc1ccc(CCC(=O)O)cc1)C2 (racemic) [Example 55, 3-[4-(11,11-dimethyl-spiro[5.5]undec-7-en-2-ylmethoxy)-phenyl]-propionic acid], which EC50 is on record?
**A.** Its EC50 is 0.1 to 1 µM.

**Q.** With CCCOC(CC(=O)O)c1ccc(OCC2CCCC3(CCCCC3)C2)cc1 (racemic) [Example 83, 3-propoxy-3-[4-(spiro[5.5]undec-2-ylmethoxy)-phenyl]-propionic acid] as the compound, how does the EC50 read?
**A.** The EC50 was 0.1 to 1 µM.

**Q.** Which EC50 does the source give for C/C=C\[C@@H](CC(=O)O)c1ccc(OCC2CCCC3(CCCCC3)C2)cc1 (mixture of isomers) [Example 77, (Z)-(3R)-3-[4-(spiro[5.5]undec-2-ylmethoxy)-phenyl]-hex-4-enoic acid] here?
**A.** Its EC50 is 0.1 to 1 µM.

**Q.** How did the EC50 turn out when O=C(O)CCc1ccc(OCC2CCCC3(CCCCC3)C2)cc1 (single isomer, unassigned) [Example 89, 3-[4-(spiro[5.5]undec-2-ylmethoxy)-phenyl]-propionic acid (chiral: B)] was run?
**A.** Its EC50 is 1 to 10 µM.

**Q.** Which EC50 does the source give for O=C(O)CCc1ccc(OCC2CCCC3(CCCCCC3)C2)cc1 (racemic) [Example 49, 3-[4-(spiro[5.6]dodec-2-ylmethoxy)-phenyl]-propionic acid] here?
**A.** The EC50 was 1 to 10 µM.

**Q.** CC#C[C@H](CC(=O)O)c1ccc(OCC2CCCC3(CCCCC3)C2)cc1 (mixture of isomers) [Example 58, (3R)-3-[4-(spiro[5.5]undec-2-ylmethoxy)-phenyl]-hex-4-ynoic acid] was tested. Which EC50 did it give?
**A.** The EC50 was 1 to 10 µM.

**Q.** Which EC50 does the source give for CCOC(CC(=O)O)c1ccc(OCC2=CC3(CCCCC3)CCC2)cc1 (single isomer, unassigned; (+)) [Example 44, (+)-3-ethoxy-3-[4-(spiro[5.5]undec-1-en-2-ylmethoxy)-phenyl]-propionic acid] here?
**A.** Its EC50 is 1 to 10 µM.

**Q.** For CC#C[C@@H](CC(=O)O)c1ccc(OCC2CCCC3(CCCC3)C2)cc1 (single isomer, unassigned) [Example 37], which EC50 is on record?
**A.** The EC50 was 0.1 to 1 µM.

**Q.** CC#C[C@@H](CC(=O)O)c1ccc(OC2CCC3(CCCCC3)CC2)cc1 [Example 63, (3S)-3-[4-(spiro[5.5]undec-3-yloxy)-phenyl]-hex-4-ynoic acid] was tested. Which EC50 did it give?
**A.** The EC50 was 0.1 to 1 µM.

**Q.** CN(C)C(=O)C(CC(=O)O)c1ccc(OCC2CCCC3(CCCCC3)C2)cc1 (racemic) [Example 59, N,N-dimethyl-3-[4-(spiro[5.5]undec-2-ylmethoxy)-phenyl]-succinamic acid] was tested. Which EC50 did it give?
**A.** The EC50 was 0.1 to 1 µM.

**Q.** Which EC50 does the source give for O=C(O)CCc1ccc(OC2CCCC3(CCCCC3)C2)cc1 (racemic) [Example 61, 3-[4-(spiro[5.5]undec-2-yloxy)-phenyl]-propionic acid] here?
**A.** Its EC50 is at least 10 µM.

**Q.** For CC#C[C@@H](CC(=O)O)c1ccc(OCC2=C[C@]3(CCC2)CCC(=O)C3)cc1 [Example 103, (3S)-3-[4-((5R)-2-oxo-spiro[4.5]dec-6-en-7-ylmethoxy)-phenyl]-hex-4-ynoic acid sodium salt], which EC50 is on record?
**A.** Its EC50 is 0.1 to 1 µM.

**Q.** CC1CCCC(C)C12CCCC(COc1ccc(CCC(=O)O)cc1)C2 (racemic) [Example 51, 3-[4-(7,11-dimethyl-spiro[5.5]undec-2-ylmethoxy)-phenyl]-propionic acid] was tested. Which EC50 did it give?
**A.** Its EC50 is 1 to 10 µM.

**Q.** O=C(O)CC(CO)c1ccc(OCC2CCCC3(CCCCC3)C2)cc1 (racemic) [Example 69, 4-hydroxy-3-[4-(spiro[5.5]undec-2-ylmethoxy)-phenyl]-butyric acid] was tested. Which EC50 did it give?
**A.** Its EC50 is 1 to 10 µM.

**Q.** Which EC50 does the source give for CC#C[C@@H](CC(=O)O)c1ccc(OCC2=CCCC3(CCCCC3)C2)cc1 [Example 1, (S)-3-[4-(spiro[5.5]undec-2-en-2-ylmethoxy)-phenyl]-hex-4-ynoic acid] here?
**A.** The EC50 was 0.01 to 0.1 µM.

**Q.** How did the EC50 turn out when COc1cc(CCC(=O)O)ccc1OCC1=CC2(CCCC2)CCC1 [Example 111, 3-[3-methoxy-4-(spiro[4.5]dec-6-en-7-ylmethoxy)-phenyl]-propionic acid] was run?
**A.** The EC50 was at least 10 µM.

**Q.** CC#C[C@@H](CC(=O)O)c1ccc(OCC2=CCCC3(CCCCC3)C2)cc1 [Example 119, (S)-3-[4-(spiro[5.5]undec-2-en-2-ylmethoxy)-phenyl]-hex-4-ynoic acid L-lysine salt] was tested. Which EC50 did it give?
**A.** The EC50 was 0.1 to 1 µM.

**Q.** How did the EC50 turn out when COCC(CC(=O)O)c1ccc(OCC2CCCC3(CCCCC3)C2)cc1 (racemic) [Example 71, 4-methoxy-3-[4-(spiro[5.5]undec-2-ylmethoxy)-phenyl]-butyric acid] was run?
**A.** The EC50 was 1 to 10 µM.

**Q.** With CC#C[C@@H](CC(=O)O)c1ccc(OCC2CCC3(CCCC3)C2)cc1 (mixture of isomers) [Example 30, (3S)-3-[4-(spiro[4.4]non-2-ylmethoxy)-phenyl]-hex-4-ynoic acid] as the compound, how does the EC50 read?
**A.** The EC50 was 0.1 to 1 µM.

**Q.** Which EC50 does the source give for CC#C[C@H](CC(=O)O)c1ccc(OCC2=CC3(CCCC3)CCC2)cc1 [Example 94, (R)-3-[4-(spiro[4.5]dec-6-en-7-ylmethoxy)-phenyl]-hex-4-ynoic acid L-lysine salt] here?
**A.** Its EC50 is 1 to 10 µM.

**Q.** How did the EC50 turn out when CCC[C@@H](CC(=O)O)c1ccc(OCC2CCCC3(CCCCC3)C2)cc1 (mixture of isomers) [Example 78, (3S)-3-[4-(spiro[5.5]undec-2-ylmethoxy)-phenyl]-hexanoic acid] was run?
**A.** Its EC50 is 1 to 10 µM.
